Common to all, as to type: cell-based
One test deals with IL-6. The test is described as follows: IL-6 release, UV-A-induced photoaging in human dermal fibroblasts (ELISA). Conditions: UV-A 12.5 J/cm^2 (315-400 nm). How it is done: Primary dermal fibroblasts cells of human origin were cultured in vitro using standard conditions (37° C., 95% v/v air, 5% v/v CO2). Primary dermal fibroblasts from neonatal donor were used from human origin and purchased from Thermo-Fisher (Cat No. C0045C). […] Cells were cultured until the second passage and then acclimated for 48 hours before UVA irradiation and dosing procedures conducted in 24-well plates. On Day 3, test materials were dosed to cell culture media and pre-incubated for 6 hours. Treatment media was then removed and replaced with phosphate buffer saline (PBS) without test materials and Ultraviolet-A (UV-A) was irradiated at 12.5 J/cm^2 using FS-20/T-12 bulbs (315-400 nm). […]
An Interleukin-6 assay was used to evaluate the anti-inflammatory activity of KLS-13022 formulated in ethanol and applied in vitro to cells irradiated with Ultraviolet-A (UV-A)-induced photoaging (Wlascheck et al., 1994) in human dermal fibroblasts (HDFs). […] IL-6 levels were quantified by enzyme-linked immunosorbent assay (ELISA) after inflammatory induction and incubation with test and control materials. Interleukin-6 (IL-6) levels were assessed from cell culture media supernatants using BD Biosciences OptEIA™ Human IL-6 ELISA Set kit (Cat. No. 555220). according to the manufacture's specifications. […]
In general terms: In an ELISA, binding on a coated surface is turned into a signal by an enzyme label.

A further test has as its system IL-8. The experiment in a line: IL-8 release, nickel-induced allergy in human dermal microvascular endothelial cells (ELISA). Conditions: co-treatment with NiSO4, HDMECs. How it is done:
Dermal Microvascular endothelial cells of human origin were cultured in vitro using standard conditions (37° C., 95% v/v air, 5% v/v CO2). Human cells were selected as relevant to cell types within skin tissues for this development program. Cell culture methods are commonly used in non-clinical studies conducted on pharmaceutical products. […] Cells were cultured until the third and fourth passage and then acclimated for 24 hours before Nickel induction and dosing procedures. Cell treatment groups were identified using appropriate 96-well plates. The test and control articles were administered to medium containing 1 mM NiSO4 in triplicates. The negative control group received vehicle-only (0.1% v/v final) dose. A fixed 0.1 μL/well from 1000× stock dose volume was administered to 100 μL of media to each cell culture well on Day 2 and incubated for 6 hours at 37 degrees. These cell cultures were also utilized to determine the concentrations of test agent that were non-toxic after 24 hours of incubation.
Assay for Interleukin-8: Test material was applied in vitro for the ability to inhibit pro-inflammatory (IL-8) cytokine secretion by cultured HDMECs co-treated with Nickel (NiSO4). Clobetasol propionate was tested as positive control material for anti-inflammatory activity. The pro-inflammatory cytokine (IL-8) was quantified by enzyme-linked immunosorbent assay (ELISA) after inflammatory induction and incubation with test and control materials. Interleukin-8 levels in cell culture medium are markers of inflammation signaling by endothelial cells present in skin microvascular tissue in response to irritation. Interleukin-8 (IL-8) levels were assessed using BD Biosciences OptEIA™ Human IL-8 ELISA Set kit (Cat. No. 555244) and Reagent Set B (Cat. No. 550534) according to the manufacture's specifications. Absorbance was measured at 450 nm using plate reader and interleukin-8 levels were calculated from a standard curve.

The next test relates to TNFα. The experiment in a line: TNFα release from UV-B irradiated human epidermal keratinocytes (ELISA). Particulars: Keratinocyte, light or radiation study, UV-B 25 mJ/cm^2 (280-312 nm), read-out: IC50 of TNFα inhibition. How it is done:
Normal human epidermal keratinocytes cultures were utilized to measure the release of proinflammatory cytokines and chemokines. Primary epidermal keratinocytes from neonatal donors were used from human origin and purchased from Thermo-Fisher (Cat No. A13401). […] Cells were cultured until the second passage and then acclimated for 48 hours more before UV-B irradiation. Dosing procedures and cell groups were identified using appropriate cell culture 24-well plates. The cell culture incubator was set at 5% v/v CO2 with temperature and humidity maintained at 36-38° C. and 40-70%, respectively. The test and control substances were administered to HKGS-depleted medium in triplicates. A fixed 5 μL/well from 100× stock dose volume was administered to 500 μL of media to each cell culture well on Day 3 and pre-incubated for 6 hours and then post-UVB incubated for 18 hours. […] Media supernatants were harvested and analyzed for TNFα and IL-1β levels by ELISA method. Cytokine levels were assessed from cell culture media supernatants using BD Biosciences OptEIA™ Human TNFα (Cat. No. 555212) and IL-1β (Cat. No. 557953) and ELISA set kit and Reagent Set B (Cat. No. 550534) according the manufacture's specifications. Absorbance was measured at 450 nm using a plate reader and calculated cytokine levels were determined from a standard curve.

From patent publication US20220409578A1, “FUNCTIONALIZED 1,3-BENZENE DIOLS AND THEIR METHOD OF USE FOR THE TREATMENT OF RADIATION DERMATITIS AND OTHER SKIN DISORDERS” (KANNALIFE SCIENCES, INC., priority 2019, published 2022) come the findings set out here.

Broadly, the IC50 is the point on the concentration scale where inhibition reaches its midpoint.

As to `C=C(C)[C@@H]1CCC(C)=C[C@H]1c1c(O)cc(CC2CN(C(=O)OCC)C2)cc1O` [KLS-13022, ethyl 3-(3,5-dihydroxy-4-((1R,6R)-3-methyl-6-(prop-1-en-2-yl)cyclohex-2-enyl)benzyl)azetidine-1-carboxylate], the IC50 came out at 900 nM in the test on IL-6 (Fibroblast, light or radiation study, read-out: IC50 of IL-6 inhibition); 300 nM in the test on IL-8 (Homo sapiens, Endothelial cell, read-out: IC50 of IL-8 inhibition); 380 nM in the test with TNFα. For the same compound, the “maximum IL-6 inhibition” value in the test with IL-6 was 95%. Further, the “maximum IL-8 inhibition” value in the test with IL-8 turned out to be 78%.
